Measured values reported in US10660965B2, “Methods of enhancing drug delivery and effectiveness of therapeutic agents” (priority 2010, dated 2020).

System: Patient-derived low passage pancreatic tumor xenografts
Assay: Tumor regression in patient-derived pancreatic tumor xenografts
Format: in vivo, nude mice
Conditions: 11 xenograft cases; ABI 30 mg/kg i.v. daily x5, GEM 100 mg/kg i.p. twice a week for 4 weeks
Procedure: Eleven Patient-derived low passage pancreatic tumor xenografts were implanted (s.c) in nude mice. Mice with tumor size of ˜200 mm3 were randomized to four treatment groups (7-10 tumors/group) and treated with 1) Vehicle; 2) Abraxane® (ABI) 30 mg/kg once daily i.v for five consecutive days; 3) Gemcitabine (GEM) 100 mg/kg twice a week for 4 weeks i.p and 4) GEM+ABI in the above mentioned dose and frequency for 4 weeks. Tumor size was measured twice per week using a digital caliper. Number of tumors that regressed more than 50% of its initial size in each tumor xenografts were noted. Extent of stromal desmoplasia and endothelial cell content in control and treated xenografts were determined by Masson's Trichrome staining, IHC and qRTPCR.

## Nc1ccn([C@@H]2O[C@H](CO)[C@@H](O)C2(F)F)c(=O)n1 [GEM, gemcitabine]
  cases that produced >50% regression of tumor size: 2 of 11
